Laboratory results: ChEMBL document CHEMBL4130634, “Discovery of Reversible DNA Methyltransferase and Lysine Methyltransferase G9a Inhibitors with Antitumoral in Vivo Efficacy” (J Med Chem, 2018)

Key:
[1] = Half life in human liver microsomes at 1 uM preincubated for 10 mins followed by NADP addition after 20 mins by LC-MS/MS analysis; assay type: ADME, microsome
[2] = tested on: THLE-2; assay: Growth inhibition of human THLE2 cells after 72 hrs by MTS assay; assay type: cell-based; conditions: thle-2, 72 h
[3] = AUC (0 to 24 hrs) in RARG2-/-gammac-/- Balb/c mouse at […], iv administered as single dose by LC-MS/MS analysis; assay type: ADME, organism-based; set-up: time < 24 hr, dose 2.5 mg/kg, route intravenous; conditions: in vivo
[4] = tested on: MV4-11; assay: Antitumor activity against human MV4-11 cells xenografted in RARG2-/-gammac-/- Balb/c mouse assessed as tumor growth inhibition at […], iv for 21 consecutive days starting from day 1 post tumor inoculation measured on day 23 relative to control; assay type: functional; conditions: MV4-11, iv, read-out: TGI
[5] = Metabolic stability in human liver microsomes assessed as parent compound remaining at 1 uM preincubated for 10 mins followed by NADP addition after 20 mins by LC-MS/MS analysis; assay type: ADME, microsome
[6] = Growth inhibition of human LAL-CUN-2 cells after 48 hrs by MTS assay; assay type: functional
[7] = Metabolic stability in mouse liver microsomes assessed as parent compound remaining at 1 uM preincubated for 10 mins followed by NADP addition after 20 mins by LC-MS/MS analysis; assay type: ADME, microsome; conditions: read-out: Stability
[8] = Half life in mouse liver microsomes at 1 uM preincubated for 10 mins followed by NADP addition after 20 mins by LC-MS/MS analysis; assay type: ADME, microsome
[9] = tested on: MV4-11; assay: Growth inhibition of human MV4-11 cells after 48 hrs by MTS assay; assay type: functional; conditions: MV4-11, 48 h
[10] = Growth inhibition of human CEMO1 cells after 48 hrs by MTS assay; assay type: functional
[11] = target: T1, CYP1A2 (Homo sapiens, UniProt P05177); assay: Inhibition of CYP1A2 in human liver microsomes at 10 uM after 10 mins in presence of NADPH by LC-MS/MS analysis relative to control; assay type: ADME
T1 sequence (P05177 whole entry): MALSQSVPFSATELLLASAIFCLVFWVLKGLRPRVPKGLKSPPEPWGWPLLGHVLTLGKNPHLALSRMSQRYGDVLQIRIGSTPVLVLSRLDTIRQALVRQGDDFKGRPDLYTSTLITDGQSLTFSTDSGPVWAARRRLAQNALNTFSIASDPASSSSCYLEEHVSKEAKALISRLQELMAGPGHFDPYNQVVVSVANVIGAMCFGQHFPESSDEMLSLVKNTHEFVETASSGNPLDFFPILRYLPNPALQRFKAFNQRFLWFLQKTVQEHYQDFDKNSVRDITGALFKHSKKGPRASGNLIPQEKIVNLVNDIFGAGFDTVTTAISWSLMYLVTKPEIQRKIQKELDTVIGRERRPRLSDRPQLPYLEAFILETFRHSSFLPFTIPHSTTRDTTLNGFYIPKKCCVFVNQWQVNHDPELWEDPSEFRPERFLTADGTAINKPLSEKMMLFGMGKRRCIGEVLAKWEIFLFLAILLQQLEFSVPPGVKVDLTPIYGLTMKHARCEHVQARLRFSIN

[12] = target: CYP3A4 (Homo sapiens, UniProt P08684); assay: Inhibition of CYP3A4 in human liver microsomes at 10 uM after 10 mins in presence of NADPH by LC-MS/MS analysis relative to control; assay type: ADME
[13] = tested on: OCI-Ly3; assay: Growth inhibition of human OCI-LY3 cells after 48 hrs by MTS assay; assay type: functional; conditions: OCI-Ly3, 48 h
[14] = tested on: OCI-Ly10; assay: Growth inhibition of human OCI-LY10 cells after 48 hrs by MTS assay; assay type: functional; conditions: OCI-Ly10, 48 h
[15] = Permeability of the compound at 50 uM after 18 hrs by PAMPA; assay type: ADME; conditions: read-out: permeability
[16] = target: CYP2D6 (Homo sapiens, UniProt P10635); assay: Inhibition of CYP2D6 in human liver microsomes at 10 uM after 10 mins in presence of NADPH by LC-MS/MS analysis relative to control; assay type: ADME
[17] = target: T2, Histone-lysine N-methyltransferase EHMT2 (Homo sapiens, UniProt Q96KQ7); assay: Inhibition of human G9a using biotinylated-H3K9 peptide as substrate after 1 hr in presence of SAM by TR-FRET assay
T2 sequence (Q96KQ7 whole entry): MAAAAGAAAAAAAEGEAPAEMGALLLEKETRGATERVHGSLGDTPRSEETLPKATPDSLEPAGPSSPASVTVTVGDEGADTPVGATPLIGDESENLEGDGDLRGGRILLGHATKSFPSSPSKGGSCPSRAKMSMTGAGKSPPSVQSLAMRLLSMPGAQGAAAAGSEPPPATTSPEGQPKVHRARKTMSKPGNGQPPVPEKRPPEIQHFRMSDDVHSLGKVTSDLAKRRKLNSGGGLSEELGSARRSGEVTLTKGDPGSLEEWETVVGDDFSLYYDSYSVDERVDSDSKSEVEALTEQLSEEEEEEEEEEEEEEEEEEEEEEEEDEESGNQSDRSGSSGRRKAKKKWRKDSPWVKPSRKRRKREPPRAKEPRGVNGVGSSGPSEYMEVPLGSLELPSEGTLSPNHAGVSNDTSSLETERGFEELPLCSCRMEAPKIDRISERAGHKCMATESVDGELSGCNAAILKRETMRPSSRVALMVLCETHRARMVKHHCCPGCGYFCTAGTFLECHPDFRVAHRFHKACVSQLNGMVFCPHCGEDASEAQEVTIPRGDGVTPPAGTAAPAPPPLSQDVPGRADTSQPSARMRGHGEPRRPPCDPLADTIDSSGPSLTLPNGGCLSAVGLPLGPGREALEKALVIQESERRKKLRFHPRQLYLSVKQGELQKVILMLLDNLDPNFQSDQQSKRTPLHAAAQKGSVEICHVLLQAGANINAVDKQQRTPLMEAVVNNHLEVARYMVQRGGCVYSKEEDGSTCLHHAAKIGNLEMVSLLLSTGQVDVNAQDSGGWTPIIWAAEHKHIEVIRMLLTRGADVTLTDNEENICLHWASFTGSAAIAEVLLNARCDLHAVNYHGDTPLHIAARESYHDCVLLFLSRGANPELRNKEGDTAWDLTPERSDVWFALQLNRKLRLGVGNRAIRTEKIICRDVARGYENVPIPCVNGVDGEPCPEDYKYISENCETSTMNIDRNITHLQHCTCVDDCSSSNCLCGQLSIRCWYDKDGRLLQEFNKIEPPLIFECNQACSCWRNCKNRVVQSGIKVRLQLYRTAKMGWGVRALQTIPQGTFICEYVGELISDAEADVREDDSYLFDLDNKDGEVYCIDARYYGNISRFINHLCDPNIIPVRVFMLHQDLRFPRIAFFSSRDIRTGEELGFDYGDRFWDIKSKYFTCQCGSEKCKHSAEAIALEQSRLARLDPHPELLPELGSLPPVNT

[18] = target: CYP2C9 (Homo sapiens, UniProt P11712); assay: Inhibition of CYP2C9 in human liver microsomes at 10 uM after 10 mins in presence of NADPH by LC-MS/MS analysis relative to control; assay type: ADME
[19] = target: CYP2C19 (Homo sapiens, UniProt P33261); assay: Inhibition of CYP2C19 in human liver microsomes at 10 uM after 10 mins in presence of NADPH by LC-MS/MS analysis relative to control; assay type: ADME
[20] = target: DNA (cytosine-5)-methyltransferase 1 (Homo sapiens, UniProt P26358); assay: Inhibition of human DNMT1 using polydeoxyinosine polydeoxycytosine DNA as substrate after 15 mins in presence of SAM by TR-FRET assay
[21] = Growth inhibition of human LAL-CUN-2 cells at 10 uM after 48 hrs by MTS assay relative to control; assay type: functional; conditions: read-out: GI

Sequence of DNA (cytosine-5)-methyltransferase 1 (P26358 whole entry): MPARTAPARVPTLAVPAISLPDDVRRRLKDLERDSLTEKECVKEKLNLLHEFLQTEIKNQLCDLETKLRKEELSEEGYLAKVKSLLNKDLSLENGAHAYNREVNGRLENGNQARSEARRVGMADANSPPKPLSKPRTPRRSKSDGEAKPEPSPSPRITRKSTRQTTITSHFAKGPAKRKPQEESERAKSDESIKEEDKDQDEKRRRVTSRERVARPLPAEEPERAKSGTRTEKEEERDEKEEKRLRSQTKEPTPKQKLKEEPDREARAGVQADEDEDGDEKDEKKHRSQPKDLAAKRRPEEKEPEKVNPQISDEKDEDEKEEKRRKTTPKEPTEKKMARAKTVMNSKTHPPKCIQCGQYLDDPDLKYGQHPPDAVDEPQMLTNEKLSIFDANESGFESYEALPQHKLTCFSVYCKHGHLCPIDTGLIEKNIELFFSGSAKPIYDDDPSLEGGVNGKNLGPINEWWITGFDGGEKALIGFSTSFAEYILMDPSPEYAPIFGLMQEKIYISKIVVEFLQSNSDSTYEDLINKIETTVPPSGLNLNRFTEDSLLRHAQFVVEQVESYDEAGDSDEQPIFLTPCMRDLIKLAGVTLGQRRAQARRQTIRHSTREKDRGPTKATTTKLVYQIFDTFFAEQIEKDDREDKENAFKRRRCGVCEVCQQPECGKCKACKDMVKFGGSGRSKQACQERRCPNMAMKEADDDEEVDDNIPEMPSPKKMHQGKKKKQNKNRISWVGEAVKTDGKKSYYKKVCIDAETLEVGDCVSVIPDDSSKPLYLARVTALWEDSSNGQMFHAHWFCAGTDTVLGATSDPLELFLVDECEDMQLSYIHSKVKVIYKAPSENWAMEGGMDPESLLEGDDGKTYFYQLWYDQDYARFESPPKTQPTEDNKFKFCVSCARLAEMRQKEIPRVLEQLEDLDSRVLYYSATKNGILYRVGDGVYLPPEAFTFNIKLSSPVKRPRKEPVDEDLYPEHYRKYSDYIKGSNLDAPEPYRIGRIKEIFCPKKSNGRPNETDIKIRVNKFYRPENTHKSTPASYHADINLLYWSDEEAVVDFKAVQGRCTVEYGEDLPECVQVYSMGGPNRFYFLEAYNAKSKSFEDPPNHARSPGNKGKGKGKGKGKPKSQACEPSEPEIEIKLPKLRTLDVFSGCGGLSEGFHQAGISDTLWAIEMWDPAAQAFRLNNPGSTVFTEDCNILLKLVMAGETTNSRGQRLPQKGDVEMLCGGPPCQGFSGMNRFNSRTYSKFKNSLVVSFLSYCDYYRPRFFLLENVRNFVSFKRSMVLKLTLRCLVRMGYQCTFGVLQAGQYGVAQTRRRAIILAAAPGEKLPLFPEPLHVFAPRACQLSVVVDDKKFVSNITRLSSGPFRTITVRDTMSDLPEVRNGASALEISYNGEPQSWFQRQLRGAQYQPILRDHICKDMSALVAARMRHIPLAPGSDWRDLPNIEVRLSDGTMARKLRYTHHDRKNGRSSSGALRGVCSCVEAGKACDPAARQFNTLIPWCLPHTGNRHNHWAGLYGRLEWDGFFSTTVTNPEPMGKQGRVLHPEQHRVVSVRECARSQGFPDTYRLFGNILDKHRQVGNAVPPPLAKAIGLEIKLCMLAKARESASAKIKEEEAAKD
Sequence of CYP2C19 (P33261 whole entry): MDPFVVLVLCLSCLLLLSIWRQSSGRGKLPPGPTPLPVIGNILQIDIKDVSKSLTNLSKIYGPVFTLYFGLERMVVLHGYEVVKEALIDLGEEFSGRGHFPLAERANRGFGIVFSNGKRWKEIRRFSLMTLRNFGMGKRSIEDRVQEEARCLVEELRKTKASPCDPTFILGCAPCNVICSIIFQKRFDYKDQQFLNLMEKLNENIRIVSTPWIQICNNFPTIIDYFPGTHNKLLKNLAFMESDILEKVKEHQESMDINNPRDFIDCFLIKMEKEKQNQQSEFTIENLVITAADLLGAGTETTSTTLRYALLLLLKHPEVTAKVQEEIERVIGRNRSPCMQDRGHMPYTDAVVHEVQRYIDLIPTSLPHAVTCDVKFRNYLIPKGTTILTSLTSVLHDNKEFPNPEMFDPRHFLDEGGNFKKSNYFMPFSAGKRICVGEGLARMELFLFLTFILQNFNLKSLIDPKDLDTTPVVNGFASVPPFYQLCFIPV
Sequence of CYP2C9 (P11712 whole entry): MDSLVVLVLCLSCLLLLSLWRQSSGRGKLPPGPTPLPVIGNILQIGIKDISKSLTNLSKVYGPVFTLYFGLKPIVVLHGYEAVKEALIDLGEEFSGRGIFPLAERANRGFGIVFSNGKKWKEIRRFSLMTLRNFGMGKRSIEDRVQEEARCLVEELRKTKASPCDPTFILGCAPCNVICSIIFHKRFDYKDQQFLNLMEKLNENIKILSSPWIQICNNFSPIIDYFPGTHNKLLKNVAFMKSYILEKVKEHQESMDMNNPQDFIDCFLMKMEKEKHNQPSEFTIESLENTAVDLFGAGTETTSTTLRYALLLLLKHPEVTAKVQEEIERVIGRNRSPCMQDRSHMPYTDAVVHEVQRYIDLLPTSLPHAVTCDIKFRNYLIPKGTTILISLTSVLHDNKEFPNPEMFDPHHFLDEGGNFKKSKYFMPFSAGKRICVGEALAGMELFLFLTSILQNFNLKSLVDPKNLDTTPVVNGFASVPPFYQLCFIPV
Sequence of CYP2D6 (P10635 whole entry): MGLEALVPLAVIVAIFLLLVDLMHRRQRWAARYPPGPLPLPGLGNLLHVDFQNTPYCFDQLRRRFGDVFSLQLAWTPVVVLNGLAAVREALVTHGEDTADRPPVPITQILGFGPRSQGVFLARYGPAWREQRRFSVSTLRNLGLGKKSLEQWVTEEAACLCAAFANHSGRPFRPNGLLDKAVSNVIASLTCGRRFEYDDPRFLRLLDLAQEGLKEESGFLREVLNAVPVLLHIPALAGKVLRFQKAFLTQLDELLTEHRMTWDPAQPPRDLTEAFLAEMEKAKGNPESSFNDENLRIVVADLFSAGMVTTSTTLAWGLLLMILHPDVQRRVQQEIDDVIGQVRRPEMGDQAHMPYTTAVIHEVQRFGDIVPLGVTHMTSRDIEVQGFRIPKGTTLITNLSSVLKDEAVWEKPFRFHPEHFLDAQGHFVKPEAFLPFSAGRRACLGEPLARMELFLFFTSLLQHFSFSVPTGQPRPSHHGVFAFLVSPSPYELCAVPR
Sequence of CYP3A4 (P08684 whole entry): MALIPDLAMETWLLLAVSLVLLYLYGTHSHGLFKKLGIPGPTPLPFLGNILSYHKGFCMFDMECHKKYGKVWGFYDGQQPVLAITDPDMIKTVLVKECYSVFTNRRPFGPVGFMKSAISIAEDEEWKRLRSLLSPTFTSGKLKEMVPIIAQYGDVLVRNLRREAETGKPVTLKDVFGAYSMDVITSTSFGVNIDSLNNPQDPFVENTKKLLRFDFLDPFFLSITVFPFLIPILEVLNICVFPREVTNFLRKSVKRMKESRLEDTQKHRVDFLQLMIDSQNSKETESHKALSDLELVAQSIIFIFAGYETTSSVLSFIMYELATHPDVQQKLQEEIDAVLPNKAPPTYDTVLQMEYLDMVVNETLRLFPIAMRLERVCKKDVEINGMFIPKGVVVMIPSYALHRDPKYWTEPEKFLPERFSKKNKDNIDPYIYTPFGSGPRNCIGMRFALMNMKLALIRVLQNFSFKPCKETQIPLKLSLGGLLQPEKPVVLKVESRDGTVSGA

SMILES | LC50 [2] [nM] | remaining at 20 min, 1 µM [7] [%] | half-life at 1 µM [8] [min] | GI50 [9] [nM] | GI50 [10] [nM] | GI50 [13] [nM] | GI50 [14] [nM] | Papp at 18 h, 50 µM [15] [×10⁻⁶ cm/s] | IC50 [17] [nM] | IC50 [20] [nM] | further results
COc1cc2c(NC3CCN(C)CC3)cc(-c3ccc(C)o3)nc2cc1OCCCN1CCCC1 | 1780 | 70.9 | 36 | 269 | – | – | – | – | – | – | half-life at 1 µM ([1]; liver microsomes): > 144 min; AUC(0-t) at 24 h [3]: 1.49 µM·h; inhibition in vivo at […] [4]: 70%; remaining at 20 min, 1 µM ([5]; liver microsomes, read-out: Stability): 99.7%; GI50 [6]: 664 nM
COc1cc2c(NC3CCN(C(C)C)CC3)cc(-c3ccc(C)o3)nc2cc1OCCCN1CCCC1 | 1340 | 36.9 | 18 | 649 | 247 | 898 | 792 | 2.58 | 3 | 231 | t1/2 ([1]; microsomes, 20 min, 1 µM): 1.7 h; inhibition at 10 min, 10 µM [11]: 4.3%; Stability ([5]; microsomes, 20 min, 1 µM): 64%; inhibition at 10 min, 10 µM [12]: 0%; inhibition at 10 min, 10 µM [16]: 11.4%; inhibition at 10 min, 10 µM [18]: 6.1%; inhibition at 10 min, 10 µM [19]: 0%
COc1cc2c(NC3CCN(C)CC3)cc(-c3ccoc3)nc2cc1OCCCN1CCCC1 | 22300 | – | – | – | 4560 | > 4000 | 386 | 0.22 | 7 | 978 | inhibition of growth at 10 µM [21]: 54%
